Results on one compound are retold here after patent publication US6613800B1, “Method and compositions for treating psoriasis, eczema, seborrhea and arthritis” (priority 2001, dated 2003).

For this test, the system named is psoriasis. The test can be described thus: Case studies: clinical treatment of resistant psoriasis. The test is classed as in vivo, human. The settings on record: Case No. 9; Methotrexate 5-10 mg per week from April 2001, Psorex stopped; summer to August 2001. From the text: The following case studies are presented to show results from clinical trials of the present invention on resistant cases of psoriasis, eczema and seborrhea.
A combination of Psorizide Ultra® and Psorex® was employed in some of these case studies. In others, a combination of Psorizide Ultra® and Fumaric Acid 1× was used. Psorizide Ultra® is a natural mineral homeopathic medication commercially available from Applicant's company, i.e. LOMA LUX Laboratories, 5801 E. 41st Street, Suite 200, Tulsa, Okla. 74135. This prescription drug includes active ingredients of nickel sulfate and potassium bromide.
Psorex® is a scientifically designed supplement containing reagent grade fumaric acid esters. This supplement is commercially available from Ecological Formulas at 1-800-888-4585. Each Psorex® capsule contains 120 mg fumaric acid ester.
Fumaric Acid 1×300 mg tablets are commercially available from B.H.I., 11600 Cochiti Road SE, Albuquerque, N.Mex. 87123-3376. Each Fumaric Acid 1× tablet contains approximately 30 mg of fumaric acid.
The patient is a person with a ten year history of psoriasis of the anogenital region. They had been treated with numerous topical lotions with only limited results. More recently they also developed left knee involvement and flaring of all disease sites due to surgery. They presented November 2000 complaining of itching. […]

Consider `CN(Cc1cnc2nc(N)nc(N)c2n1)c1ccc(C(=O)N[C@@H](CCC(=O)O)C(=O)O)cc1` [Methotrexate®, Methotrexate], for which the “clinical condition of plaque psoriasis” value is reported as “doing very well through the summer, but by August 2001 the psoriasis was worse”.
